According to US8926955B2, “Synthesis of polymer conjugates of indolocarbazole compounds” (priority 2008, dated 2015):

What was measured:
[1] = system: Chinese hamster ovary cells; assay: Chromosome aberrations in Chinese hamster ovary cells in vitro (photomutagenicity assay); details: 3 hours treatment, absence or presence of ultraviolet light
Experimental: The test item was assayed for the ability to cause chromosomal damage in Chinese hamster ovary cells, following in vitro treatment in the absence and presence of UVA/UVB irradiation.
Solutions of the test item were prepared in Hank's Balanced Salt Solution (HBSS).
Both in the absence and presence of UV light, the cells were treated for 3 hours and the harvest time of 20 hours, corresponding to approximately 1.5 cell cycle, was used.
The experiment included appropriate negative and positive controls. Two cell cultures were prepared at each test point.
Dose levels were selected for the scoring of chromosomal aberrations on the basis of the cytotoxicity of the test item treatments as determined by the reduction of cell counts at the time of harvesting.
One hundred metaphase spreads were scored for chromosomal aberrations from each culture.

guinea pig [2] = assay: Photoirritation test in guinea pigs; format: in vivo
Experimental: The potential of the test item 0.1% cream to cause photoallergic and/or photoirritant reactions following topical application to the skin, in association with exposure to ultraviolet light, was assessed using a guinea pig model.
In the first phase, an assessment of the photoirritant properties of the test item was performed in 6 groups of animals. These were used both to establish suitable concentrations of the test item for use in the sensitisation assay and to provide information on photo-induced irritation. Animals were treated as follows (Table 6):
The photoirritation test was undertaken using 2 (irradiated) groups, each of 5 animals, treated with the control and test items, cream placebo and test item 0.1% cream, respectively (cf. Table 6, groups 1 and 3) and 2 similarly constituted groups (cf. Table 6, groups 2 and 4), treated in the same manner but not irradiated. Aliquots of the undiluted test or control item (100%), 2 concentrations (20% and 50% in purified water) of the test and control items and the vehicle alone (purified water), were spread evenly over defined skin sites prepared on the dorsum of the animals. Animals of the irradiated groups (groups 1 and 3) were exposed to both UVA (10 Joules/cm^2) and UVB (0.1 Joules/cm^2) radiation following dosing. […]

Balb/c 3T3 cells = format: cell-based; details: mouse
Experimental: The potential in vitro phototoxicity of the test item was evaluated by the measurements of neutral red uptake for cellular toxicity on cultures of Balb/c 3T3 cells treated with different doses of the test item and exposed to UVA irradiation. Test item solutions were prepared using Earle's Balanced Salt Solution (EBSS).
A preliminary dose-range finding experiment in the presence (+UVA) and in the absence (−UVA) of light was undertaken in order to select appropriate dose levels for the main assays. The test item was assayed at a maximum dose level of 1000 μg/ml (the upper limit indicated in the study protocol) and at a wide range of lower dose levels: 500, 250, 125, 62.5, 31.3, 15.6 and 7.81 μg/ml. […] In this case the chemical is considered to be non-phototoxic. The same dose range was used for the main assay.
A main experiment was performed using the following dose levels: 1000, 500, 250, 125, 62.5, 31.3, 15.6 and 7.81 μg/ml.

guinea pig [3] = assay: Photosensitisation test in guinea pigs; format: in vivo
Experimental: The second phase of the study was an assessment of sensitisation, in which a total of 5 groups were treated as follows (Table 7):
The photosensitisation test was undertaken using 2 groups of 10 animals (cf. Table 7, groups 8 and 9) induced with the control item and the test item and 1 control group of 10 animals (cf. Table 7, group 7) induced with the selected vehicle (purified water). In an attempt to induce sensitisation, animals were intradermally injected with an emulsion of Freund's complete adjuvant. The test and control items, at 100% concentration, were applied topically over the area among the injection sites of FCA a total of 6 times over a 2 week period. Animals were exposed to both UVA (10 Joules/cm^2) and UVB (0.1 Joules/cm^2) radiation following dosing. Control group animals were treated in the same manner but the selected vehicle (purified water) was used in place of the test or control items. Approximately 2 weeks after the final induction exposure, all animals were challenged by topical application of both the vehicle and the test or control item at 20% and 50% concentrations, respectively. These concentrations were selected as they were considered non-irritant to the skin in association with ultraviolet irradiation on the basis of the results obtained at the photoirritation test. Animals of the 2 test groups and the control group were exposed to both UVA (10 Joules/cm^2) and UVB (0.1 Joule/cm^2) radiation following dosing. Additional sites on each animal were topically treated with both the vehicle and test or control items, but treatment was not followed by exposure to ultraviolet irradiation. Approximately 24, 48 and 72 hours after challenge exposure the treated sites were examined for evidence of reaction to treatment.
One group of 5 animals (cf. Table 7, group 11) was induced with this substance at a concentration of 15% in acetone. A control group of 3 animals (cf. Table 7, group 10) was treated in the same manner with the vehicle alone (acetone). A concentration of 10% of the reference item (Musk Ambrette) in acetone was selected for the challenge. […]

Q: Which “cells bearing chromosomal aberrations (including or excluding gaps)” value [1] does the source give for `COc1c2occc2cc2ccc(=O)oc12` [8-Methoxypsoralen] here?
A: Statistically significant increases

Q: What about the skin reaction (guinea pig [2]; exposed to ultraviolet light, concentrations 0.01% and 0.1%) of the same molecule?
A: well defined to moderate erythema and a slight oedema

Q: What about the skin reaction (guinea pig [2]; without exposure to ultraviolet light) of the same molecule?
A: No response was seen

Q: `CN(C)CCCN1c2ccccc2Sc2ccc(Cl)cc21` [Chlorpromazine, reference compound] was tested. Which “Photo Irritation Factor (PIF)” value (Balb/c 3T3 cells) did it give?
A: 21.9

Q: What does the source list for `COc1c(C(C)(C)C)cc([N+](=O)[O-])c(C)c1[N+](=O)[O-]` [Musk Ambrette]?
A: response at challenge (guinea pig [3]; group 10, induced with the vehicle): No response to the reference item was observed; animals responding at challenge (very slight to slight erythema) (guinea pig [3]; group 11 (induced at 15% in acetone), challenge at 10% followed by UV irradiation): 4/5; response at challenge (guinea pig [3]; group 11, sites treated but not irradiated): No response to the reference item was observed
